Measurements: publication PMC7357169, “Blinded, Multicenter Evaluation of Drug-induced Changes in Contractility Using Human-induced Pluripotent Stem Cell-derived Cardiomyocytes” (Toxicological Sciences, 2020)
Like-named read-outs stand apart in the source and are kept apart here.

Legend:
hiPSC-CM EHTs = experiment: EHT contractility with beat rate slowed by 300 nM ivabradine and electrical pacing 0.5-2.0 Hz; format: cell-based, human; conditions: for CA response: EHTs with 300 nM ivabradine, paced, only at 0.5 and 0.7 Hz, sometimes at 1 Hz, never at 1.5 or 2 Hz, high concentration bolus
Protocol: We extended these studies to the 3D EHT platform, this time slowing spontaneous beating to < 0.5 Hz with 300 nM ivabradine, a pharmacological blocker of the “funny” If current ([Bois et al., 1996]). […] Whereas force-frequency relationships was negative above 1.5 Hz, it was positive between 0.5 and 1.5 Hz, evidenced by a 147% increase in force generation concurrent with significant shortening of CT and RT (Supplementary Figure 6). We therefore re-evaluated 6 of the PIs in the presence of 300 nM ivabradine with electrical pacing at 0.5, 0.7, 1.0, 1.5, and 2.0 Hz. These also included epinephrine, levosimendan, and pimobendan, which had been incorrectly predicted by EHT:R-PAT and/or EHT:ERC platform-cell combinations. […] Thus, in both 2D and 3D configurations, lower beating frequencies led to increased predictivity for PIs.
Figure 5. Slowed beat rate increases the predictivity of positive inotropes (PIs) in 3D engineered heart tissues (EHTs). Contraction analysis was carried out using EHTs with 6 of the PIs from the drug test set: epinephrine (Epi), forskolin (For), levosimendan (Lev), pimobendan (Pim), dobutamine (Dob), and milrinone (Mil) which had been predicted with variable accuracy (Figure 4A, web tool). […] Scatter plots show percentage changes relative to baseline at respective frequency. Averaged peaks for force are shown for baseline (BL, black peaks) versus after treatment in EHTs paced at 0.5 Hz (blue peaks) or 2.0 Hz (red peaks). Dunnett’s stats versus baseline at respective frequency: *p < .05; **p < .01; ***p < .001; ****p < .0001.
Supplementary Figure 6. Positive force frequency relationship in EHTs paced between 0.5 and 1.5 Hz. Spontaneous beat rate of EHTs was reduced by 3 hour pre-treatment with 300 nM ivabradine, an If current inhibitor. […] CA increased from 0.5 to 1.5 Hz but plateaued and declined at higher frequencies. These changes were reflected in the CT and RT data. Dunnett's stats vs vehicle control: *, P<0.05; **, P<0.01; ***, P<0.001; ****, P<0.0001.

cardiac contractility = conditions: cited from earlier work; for EC50: read-out: Expected effect on contractility in isolated cardiomyocytes/heart muscles, EC50; for NIE: ref (Perez et al. 1995), (Boldt et al. 2010), (Bois et al. 1996), (Mesirca et al. 2014), (Choi et al. 2016)
R-PAT hiPSC-CMs = experiment: CO:R-PAT contractility, refined conditions (RPMI-B27, slowed beat rate); format: cell-based, human; conditions: analysis of different stages of relaxation; platform taken from context (CO:R-PAT)
Description: The hiPSC-CMs used were R-PAT (derived and differentiated in house as described previously) ([Mosqueira et al., 2018]; [Smith et al., 2018]), and iCell^2 and Pluricyte (purchased from Cellular Dynamics International and Ncardia). Manufacturer instructions were followed for the commercial hiPSC lines. For iCell^2, seeding was at 25 000 cells into each well of 96-well plates (Nunclon Delta Surface; Thermo, 167008) and then maintained for 10 days before use in drug evaluation studies. The same plates were used for R-PAT hiPSC-CMs, which were seeded at 40 000 cells/well and maintained until days 20 and 21 of differentiation before use. For Pluricyte hiPSC-CMs, seeding was at 35 000 cells into each well of 96-well plates (Greiner Bio-One; 655087) and then maintained for 8 days before use. […]
hiPSC-CMs in 96-well plate were transiently loaded in 50 µl/well of SFM containing FluoVolt (1:200 part B, 1:2000 part A; Life Tech, F10488) for 20 min at 37°C and 5% CO2. […] Electrophysiology data were analyzed using CellOPTIQ proprietary software of Clyde Biosciences and were normalized to a maximum amplitude of 1 and minimum of 0 to standardize height for comparison of traces created in OriginPro (OriginLab version 7.5). Contractility data were analyzed based on pixel displacement using an ImageJ plug-in. […]

[1] = cited from earlier work; for FTPC: free therapeutic plasma concentration, Refs of Supplementary Table 1; for FPTC (free plasma therapeutic concentration): ref Supplementary Table 1
[2] = system: adult rabbit ventricular cardiomyocytes; experiment: CellOPTIQ (CO) contractility, adult rabbit ventricular cardiomyocytes; format: cell-based; conditions: isolated rabbit myocytes; not reported in any hiPSC-CM platform
Protocol: Hearts were removed and perfused retrogradely at 25 ml⋅min^−1 (37°C) with a modified KH solution containing 0.75 mmol/l [Ca^2+] for 5 min, followed by a nominally Ca^2+-free KH solution with 0.1 mmol/l EGTA for 5 min. Hearts were then perfused with KH solution containing 0.24 mmol/l [Ca^2+], 1 mg/ml collagenase (type I), and 0.06 mg/ml protease (type XIV). After approximately 4–5 min, enzyme was removed and the left ventricular free wall was then cut into strips in the recirculated enzyme solution containing 1% bovine serum albumin before being mixed to yield a single cell suspension. Cells were maintained in either Ca^2+-free KH solution or 1 mmol/l Ca^2+ (via stepwise increments) until use. Intact cardiomyocytes in 1.8 mmol/l modified Ca^2+ KH solution were loaded with FluoVolt (Thermo Fisher Scientific) at 1:3000 dilution for 10 min. The incubation medium was removed and the cells resuspended in a modified KH solution.
Cardiomyocytes were allowed to settle on a coverslip in a bath (35 mm petri-dish) at 37°C. […] A parallel set of vehicle (DMSO) time control experiments were also performed FluoVolt fluorescence (490 nm excitation) was measured at a sampling rate of 10 KHz, whereas the image was recorded on a CCD camera at 100 Hz frame rate using > 700 nm light. […]

heart = system: heart; design: method as in Refs column of Supplementary Table 1; conditions: Refs of Supplementary Table 1; cited from earlier work
PDE3 = system: PDE3; design: method as in Refs column of Supplementary Table 1; conditions: Refs of Supplementary Table 1; read-out: PDE3 inhibitor IC50; cited from earlier work
hiPSC-CMs = system: hiPSC-CMs; design: method as in Zhao et al., 2019; conditions: hiPSC-CMs under loaded conditions; ref Zhao et al., 2019; cited from earlier work
[3] = isolated cardiomyocytes/heart muscles, Refs of Supplementary Table 1

SMILES | CA response (hiPSC-CM EHTs) | EC50 (cardiac contractility; [3]) | relaxation analysis at 50% relaxation (R-PAT hiPSC-CMs) | FTPC [1] | FPTC (free plasma therapeutic concentration) [1] | spontaneous diastolic SR Ca2+ release [2] | Expected cardiac effects in vivo (heart) | spontaneous beating of EHTs (hiPSC-CM EHTs; 300 nM ivabradine) | NIE (cardiac contractility; guinea pig PM, at 100 µM) | NIE (cardiac contractility; guinea pig atria, at 100 µM) | NIE (cardiac contractility; human trabeculae at 100 µM) | Expected effect on contractility in isolated cardiomyocytes/heart muscles (cardiac contractility; [3]) | relaxation analysis at 80% relaxation (R-PAT hiPSC-CMs) | IC50 (PDE3) | PCl+PL (cardiac contractility; [3]) | Small PI (cardiac contractility; [3]) | inotropy in Biowire II constructs (hiPSC-CMs)
CC(CCc1ccc(O)cc1)NCCc1ccc(O)c(O)c1 (centres unmarked) [Dobutamine] | increased contraction amplitude | 1 to 3 µM | positive lusitropy | 0.07 to 1 µM | 0.07 to 1 µM | – | – | – | – | – | – | – | – | – | – | – | –
C=C[C@@]1(C)CC(=O)[C@]2(O)[C@@]3(C)[C@@H](O)CCC(C)(C)[C@@H]3[C@H](O)[C@H](OC(C)=O)[C@@]2(C)O1 [Forskolin] | increased contraction amplitude | 5 to 10 µM | – | 0.012 to 0.024 µM | 0.012 to 0.024 µM | spontaneous diastolic Ca^2+ release and associated diastolic shortening was observed | PI, PC | – | – | – | – | – | – | – | – | – | –
COc1cc2c(cc1OC)CC(=O)N(CCCN(C)C[C@H]1Cc3cc(OC)c(OC)cc31)CC2 [Ivabradine] | – | – | – | 0.01 to 0.1 µM | 0.01 to 0.1 µM | – | – | < 0.5 Hz | -60% | -13% | -38% | None, NC at >10 µM (spontaneously beating preps), NIE (-13/-60% in guinea pig atria/PM, -38% human trabeculae at 100 µM); PI in mouse left atria and 30% of human trabeculae | late relaxation deficit | – | – | – | –
C[C@@H]1CC(=O)NN=C1c1ccc(NN=C(C#N)C#N)cc1 [Levosimendan] | increased contraction amplitude | ~0.1 µM | – | 0.026 to 0.35 µM | 0.026 to 0.35 µM | – | PI, PC (more heart rate increase and RR decrease than dobutamine) | – | – | – | – | Small PI (~50%), PC#, PCl+PL (14%) | – | 0.025 µM | 14% | ~50% | –
Cc1[nH]c(=O)c(C#N)cc1-c1ccncc1 [Milrinone] | increased contraction amplitude | 60 µM | – | 0.1 to 0.15 µM | 0.1 to 0.15 µM | – | PI, PC (more heart rate increase and RR decrease than dobutamine) | – | – | – | – | Small PI, PC#, PCl, PL (smaller than ISO) | – | – | – | – | positive inotropy
